#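 Protocol summary: plate cells (96-well), add compound at 5 concentrations, incubate 48 h, interpolate endpoints linearly. Here, GI50 denotes the concentration required for 50% inhibition of growth.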 Activity calls are given as the source filed them. Cut-off read from the data, not from the text of the source: active = GI50 up to about 1.1 µM and inactive = higher.
# Key:
# Test in all cases: NCI-60 cell line screen, 48 h
# EKVX = test system: EKVX
# T47D = test system: T47D
# HT-29 = test system: HT-29
# UACC-62 = test system: UACC-62
# UACC-257 = test system: UACC-257
# CCRF-CEM = test system: CCRF-CEM
# RXF 393 = test system: RXF 393
# HCT-116 = test system: HCT-116
# NCI-H460 = test system: NCI-H460
# HCT-15 = test system: HCT-15
# MCF7 = test system: MCF7
# SK-OV-3 = test system: SK-OV-3
# KM12 = test system: KM12
# SW-620 = test system: SW-620
# U-251 = test system: U-251
# CAKI-1 = test system: CAKI-1
# HOP-62 = test system: HOP-62
# NCI/ADR-RES = test system: NCI/ADR-RES
# SF-539 = test system: SF-539
Structure (SMILES),GI50 (EKVX),GI50 (T47D),GI50 (HT-29),GI50 (UACC-62),GI50 (UACC-257),GI50 (CCRF-CEM),GI50 (RXF 393),GI50 (HCT-116),GI50 (NCI-H460),GI50 (HCT-15),GI50 (MCF7),GI50 (SK-OV-3),GI50 (KM12),GI50 (SW-620),GI50 (U-251),GI50 (CAKI-1),GI50 (HOP-62),GI50 (NCI/ADR-RES),GI50 (SF-539)
O=S(=O)(O)c1cc(Nc2ccnc3ccccc23)c2c(S(=O)(=O)O)cc(S(=O)(=O)O)cc2c1,> 100 µM (inactive),> 100 µM (inactive),> 100 µM (inactive),> 100 µM (inactive),> 100 µM (inactive),> 100 µM (inactive),> 100 µM (inactive),> 100 µM (inactive),> 100 µM (inactive),> 100 µM,> 100 µM (inactive),> 100 µM (inactive),> 100 µM (inactive),42.1 µM (inactive),> 100 µM (inactive),> 100 µM (inactive),> 100 µM (inactive),> 100 µM (inactive),> 100 µM (inactive)
CC(=O)C(=[N+]=[N-])C(=O)OC(C)(C)C#N,> 10 µM (inactive),> 10 µM (inactive),> 10 µM (inactive),> 10 µM (inactive),> 10 µM (inactive),> 10 µM (inactive),> 10 µM (inactive),> 10 µM (inactive),> 10 µM (inactive),> 10 µM,> 10 µM (inactive),> 10 µM (inactive),> 10 µM (inactive),> 10 µM (inactive),> 10 µM (inactive),> 10 µM (inactive),> 10 µM (inactive),> 10 µM (inactive),> 10 µM (inactive)
Cc1nc(NC(C)(CO)CO)nc(N/N=C/c2ccc(Cl)cc2)c1C(=O)Nc1ccc(Cl)cc1,> 100 µM (inactive),> 100 µM (inactive),> 100 µM (inactive),59.8 µM (inactive),> 100 µM (inactive),42.9 µM (inactive),28.4 µM (inactive),80.2 µM (inactive),> 100 µM (inactive),> 100 µM,51.1 µM (inactive),> 100 µM (inactive),86.7 µM (inactive),> 100 µM (inactive),74.8 µM (inactive),> 100 µM (inactive),> 100 µM (inactive),> 100 µM (inactive),> 100 µM (inactive)
O=C1C2=Nc3ccccc3C(O)N2c2ccccc21 (stereo not drawn),57.9 µM (inactive),37.6 µM (inactive),58.2 µM (inactive),3.51 µM (inactive),4.09 µM (inactive),> 92.7 µM (inactive),> 10 µM (inactive),> 83.4 µM (inactive),20.2 µM (inactive),16.6 µM,11.1 µM (inactive),68.2 µM (inactive),> 78.5 µM (inactive),> 100 µM (inactive),> 52.5 µM (inactive),48.4 µM (inactive),65.3 µM (inactive),40.3 µM (inactive),49.3 µM (inactive)
CCOC(=O)C(C(=O)OCC)C(NC(=O)Nc1cc(C(F)(F)F)ccc1OC)(C(F)(F)F)C(F)(F)F,70.3 µM (inactive),30.4 µM (inactive),35.8 µM (inactive),22.5 µM (inactive),39.5 µM (inactive),20.8 µM (inactive),30.3 µM (inactive),36.2 µM (inactive),31.5 µM (inactive),45.8 µM,37.2 µM (inactive),47.6 µM (inactive),26.9 µM (inactive),24.6 µM (inactive),29.2 µM (inactive),29.4 µM (inactive),25.4 µM (inactive),28.6 µM (inactive),19.5 µM (inactive)
Cc1ccc(C2=Nn3c(nc4sc5c(c4c3=O)CCCC5)SC2)cc1,> 100 µM (inactive),> 100 µM (inactive),> 100 µM (inactive),> 100 µM (inactive),> 100 µM (inactive),> 100 µM (inactive),> 100 µM (inactive),> 100 µM (inactive),> 100 µM (inactive),> 100 µM,> 100 µM (inactive),> 100 µM (inactive),> 100 µM (inactive),> 100 µM (inactive),> 100 µM (inactive),> 100 µM (inactive),> 100 µM (inactive),> 100 µM (inactive),> 100 µM (inactive)
N#CC(C#N)[C@@H]1CCC=C(Sc2ccccc2)[C@H]1Sc1ccccc1,4.54 µM (inactive),1.45 µM (inactive),3.87 µM (inactive),3.56 µM (inactive),2.26 µM (inactive),1.57 µM (inactive),1.83 µM (inactive),2.11 µM (inactive),3.56 µM (inactive),2.4 µM,2.95 µM (inactive),4.54 µM (inactive),3 µM (inactive),2.42 µM (inactive),5.81 µM (inactive),2.65 µM (inactive),3.2 µM (inactive),2.72 µM (inactive),2 µM (inactive)
CC1(C(=O)O)C[C@](C)(C(=O)OCc2ccccc2)C[C@](C)(C(=O)OCc2ccccc2)C1 (stereo partly drawn),25.1 µM (inactive),35.2 µM (inactive),31.8 µM (inactive),19 µM (inactive),38.9 µM (inactive),34.3 µM (inactive),21.6 µM (inactive),24.1 µM (inactive),23.9 µM (inactive),25.5 µM,34.1 µM (inactive),32.6 µM (inactive),31.2 µM (inactive),47 µM (inactive),,25.4 µM (inactive),30.5 µM (inactive),29.4 µM (inactive),25.8 µM (inactive)
CCCCCc1c(Cl)nc(Cl)nc1Cl,22.5 µM (inactive),19.4 µM (inactive),3.59 µM (inactive),15.3 µM (inactive),13.9 µM (inactive),0.195 µM (active),8.41 µM (inactive),3.82 µM (inactive),19.5 µM (inactive),6.17 µM,10.2 µM (inactive),10.5 µM (inactive),13.9 µM (inactive),3.63 µM (inactive),9.27 µM (inactive),2.88 µM (inactive),22.6 µM (inactive),12.1 µM (inactive),16 µM (inactive)
COc1cc(/C=C/C(=O)CC(=O)/C=C/c2cc(OC)c(O)c(OC)c2)cc(OC)c1O,12.6 µM (inactive),6.5 µM (inactive),7.76 µM (inactive),4.22 µM (inactive),8.34 µM (inactive),> 25 µM (inactive),3.33 µM (inactive),5.12 µM (inactive),22.8 µM (inactive),> 25 µM,14.9 µM (inactive),7.94 µM (inactive),6.15 µM (inactive),> 25 µM (inactive),8.11 µM (inactive),9.04 µM (inactive),11.7 µM (inactive),> 25 µM (inactive),8.77 µM (inactive)
O=S1(=O)c2cnccc2N=C(NCc2cccc3ccccc23)N1c1ccccc1,36.4 µM (inactive),54.7 µM (inactive),> 100 µM (inactive),> 22.4 µM (inactive),> 100 µM (inactive),2.51 µM (inactive),> 43.9 µM (inactive),9.35 µM (inactive),60.8 µM (inactive),50.1 µM,36.6 µM (inactive),> 100 µM (inactive),> 100 µM (inactive),> 100 µM (inactive),43.8 µM (inactive),> 100 µM (inactive),> 100 µM (inactive),97.5 µM (inactive),> 100 µM (inactive)
COc1ccc(CCNC(=O)Cc2ccccc2CO)cc1OC,> 100 µM (inactive),> 100 µM (inactive),> 100 µM (inactive),> 100 µM (inactive),> 100 µM (inactive),> 100 µM (inactive),> 100 µM (inactive),> 100 µM (inactive),> 100 µM (inactive),> 100 µM,> 100 µM (inactive),> 100 µM (inactive),> 100 µM (inactive),> 100 µM (inactive),> 100 µM (inactive),> 100 µM (inactive),> 100 µM (inactive),> 100 µM (inactive),> 100 µM (inactive)
Cc1ncc(-c2nnnn2-c2ccccc2)c(C(=O)O)n1,> 100 µM (inactive),> 100 µM (inactive),> 100 µM (inactive),> 100 µM (inactive),> 100 µM (inactive),> 100 µM (inactive),> 100 µM (inactive),> 100 µM (inactive),> 100 µM (inactive),> 100 µM,> 100 µM (inactive),> 100 µM (inactive),> 100 µM (inactive),> 100 µM (inactive),> 100 µM (inactive),> 100 µM (inactive),> 100 µM (inactive),> 100 µM (inactive),> 100 µM (inactive)
CC(C)(C)OC(=O)N(O)CCCn1cnc2c(NC3CC3)ncnc21,> 100 µM (inactive),> 100 µM (inactive),> 100 µM (inactive),> 100 µM (inactive),> 100 µM (inactive),> 100 µM (inactive),> 100 µM (inactive),> 100 µM (inactive),> 100 µM (inactive),> 100 µM,> 100 µM (inactive),> 100 µM (inactive),> 100 µM (inactive),> 100 µM (inactive),> 100 µM (inactive),> 100 µM (inactive),> 100 µM (inactive),> 100 µM (inactive),> 100 µM (inactive)
CCOC(=O)C1=C(C)N(Cc2ccccc2)C2(O)C=CC(=O)C3C(=O)N(c4ccccc4)C(=O)C132 (stereo not drawn),10.3 µM (inactive),2.42 µM (inactive),1.7 µM (inactive),1.71 µM (inactive),2.04 µM (inactive),0.735 µM (active),1.35 µM (inactive),1.15 µM (inactive),1.81 µM (inactive),1.79 µM,2.25 µM (inactive),6.75 µM (inactive),1.99 µM (inactive),,2.69 µM (inactive),1.53 µM (inactive),2.35 µM (inactive),2.75 µM (inactive),1.6 µM (inactive)

# Source: ChEMBL document CHEMBL1201862, “PubChem BioAssay data set” (2004)
